Test results taken from patent US20240374564A1, “NOVEL SEROTONIN DERIVATIVES AND THEIR USES FOR TREATING IRON-ASSOCIATED DISORDERS” (priority 2021, published 2024).

Key:
Hbb^Th1/th1 mice [1] = assay: Model 1 Hbb^Th1/th1 mice, first round: red blood cells production and iron overload; format: in vivo, mouse; conditions: for RBC count / hemoglobin / hematocrit contents: Ip injection; for RBC count: day 1 to 5, FIG. 1A; for hemoglobin: day 1 to 5, FIG. 1B; for hematocrit contents: day 1 to 5, FIG. 1C; for iron content in bone marrow / iron content in spleen: day 5 after sacrifice, FIG. 1D
Description: (§1) Hbb^th1/th1 mice carry a 3.7-kb homozygous spontaneous deletion that eliminates the Hemoglobin Subunit Beta (HBB) gene and 2 kb of the 5′ flanking region, including the promoter. On the basis of genetic and hematological criteria, these mice constitute the first animal model of beta-thalassemia.
(§2) Mouse models Hbb^Th1/Th1 with ineffective erythropoiesis and iron overload received intraperitoneal (Ip) injection of A1 or A3 derivatives starting on day 0.
(§3) In a first round of experiments, a complete red blood cells count (RBC) was achieved on day 1, day 2 and day 5.
(§4) On day 5, the animals were sacrificed and histology of their organs and iron measurement in organs was carried out.

Tph1 KO mice [2] = assay: Model 2 Tph1 KO mice, first round: red blood cells production and iron overload; format: in vivo, mouse; conditions: for anemic phenotype / RBC count / hemoglobin / hematocrit contents / heme content in red blood cells / mean cellular volume (MCV): Ip injection; for RBC count: day 1 to 5, FIG. 2A; for hemoglobin: day 1 to 5, FIG. 2B; for hematocrit contents: day 1 to 5, FIG. 2C; for heme content in red blood cells: day 1 to 5, FIG. 2D; for mean cellular volume (MCV): day 1 to 5, FIG. 2E; for iron content in spleen / iron content in bone marrow: day 5 after sacrifice; for iron content in spleen: FIG. 2F; for iron content in bone marrow: FIG. 2G
Description: (§5) This model is a peripheral serotonin deficient mice. It is a mouse model of low risk myelodysplastic syndrome, with ineffective erythropoiesis, light anemia, iron overload (spleen), abnormal red blood cells and apoptosis of proerythroblasts (see Côté et al., PNAS, 2003, 100 (23), 13525-13530).
(§6) Mouse models Tph1 KO with ineffective erythropoiesis and iron overload received intraperitoneal (Ip) injection of A1, A3, A4 derivatives or serotonin starting on day 0.
as §3, §4

Tph1 KO mice [3] = assay: Model 2 Tph1 KO mice, second round: iron distribution, FACS, ferritin; format: in vivo, mouse; set-up: condition of the mice compared with controls: dose or concentration left out as unconfirmed
Description: as §5, §6
(§7) In a second round of experiments, a complete red blood cells count (RBC) was achieved on day 2 day 5, day 10, day 15, day 20, day 25 and day 30. 4 mice were sacrificed on day 5 and every 5 days afterward for toxicity tests, Flow Cytometry Analysis and FACS (fluorescence-activated single cell sorting) essentially on bone marrow and spleen, biochemical analysis, iron status (organs, serum and urines), and histology.

Hbb^Th1/th1 mice [4] = assay: Model 1 Hbb^Th1/th1 mice, second round: FACS, RBC, body iron, urinary ferritin; format: in vivo, mouse; set-up: condition of the mice compared with control: dose or concentration left out as unconfirmed
Description: as §1, §2, §7
ProE and Ebaso are part of phases I-II, EBaso and LBaso are part of phases III-IVa, Poly and Ortho are part of phases IVb-V of cells differentiation. The mature stage is also called “acido”.

[5] = system: skin fibroblasts from FA/BPAN patients; assay: Western blot analysis of skin fibroblasts from FA/BPAN patients treated with ferric ammonium citrate; format: cell-based, human; conditions: iron overload (FAC 100 uM)
Description: Further tests were carried out on skin fibroblasts from Friedreich ataxia and Beta-propeller protein-associated neurodegeneration (BPAN) patients, to assess in particular the effects of the compounds of the invention on iron accumulation in both the cytosol and mitochondria of said fibroblasts.
Cultured skin fibroblasts from Friedreich ataxia patients were used as described in Petit et al., Blood. 2021; 137 (15): 2090-2102 and Ingrassia et al., Front Genet 2017 Feb. 17; 8:18.

[6] = system: cells from beta-thalassemic patients; assay: FACS analysis in cells from beta-thalassemic patients; format: cell-based, human; conditions: cells from beta-thalassemic patients (n=3), FIG. 8D
Description: In vitro tests were carried out on cells derived from blood of β-thalassemic patients before transfusion

Hamp KO mice = assay: Model 3 Hamp KO mice: iron overload; format: in vivo, mouse
Description: Hepcidin, encoded by the HAMP gene, is the main regulator of iron homeostasis, and its expression is tightly regulated by signals including iron levels, erythropoietic activity, hypoxia, and inflammation.
It is a mouse model of hemochromatosis. Hepcidin deficient mice progressively develop multivisceral iron overload; plasma iron overcomes transferrin binding capacity, and nontransferrin-bound iron accumulates in various tissues including pancreas and heart (see Nicolas et al., PNAS 2001, 98 (15), 8780-8785).
Mouse model of iron overload without ineffective erythropoiesis (Hamp KO) received intraperitoneal (Ip) injection of A3 derivatives or serotonin starting on day 0.
as §4

[7] = 5-HT deficient (Tph1 KO) mice, vs PBS
[8] = Hbb^Th1/th1 mice, flow cytometry, day 13, vs PBS-treated mice
[9] = Hbb^th1/th1 mice, 21 days of injection, FIG. 5C

## C#CCOc1ccc2[nH]cc(CCN(CC#C)CC#C)c2c1 [Derivative A1, N-(prop-2-yn-1-yl)-N-(2-(5-(prop-2-yn-1-yloxy)-1H-indol-3-yl)ethyl) prop-2-yn-1-amine]
Hbb^Th1/th1 mice [1]
  RBC count: improved
  hemoglobin: improved
  hematocrit contents: improved
  iron content in bone marrow: relocate into cells of the bone marrow
  iron content in spleen: decreased the iron overload in spleen

## C#CCNCCc1c[nH]c2ccc(O)cc12.O=CO [Derivative A3, N-(2-(5-hydroxy-1H-indol-3-yl)ethyl)prop-2-yn-1-aminium formate]
Tph1 KO mice [2]
  anemic phenotype: ameliorate the anemic phenotype
  RBC count: improved
  hemoglobin: improved
  hematocrit contents: improved
  heme content in red blood cells: improved
  mean cellular volume (MCV): decrease
  iron content in spleen: mobilized out of the spleen
  iron content in bone marrow: relocate into cells of the bone marrow
Tph1 KO mice [3]; [7]
  cell blood survival: increased
  erythroid expansion: restored
Tph1 KO mice [3]; Tph1 KO mice, 5 days of treatment, vs non-treated, FIG. 7A
  cellular iron misdistribution: corrects cellular iron misdistribution
Tph1 KO mice [3]; Tph1 KO mice, 21 days of IP injection, vs PBS, FIG. 7B
  cellular iron misdistribution: corrects cellular iron misdistribution
Tph1 KO mice [3]; Tph1 KO mice, 21 days, FIG. 7C
  pathological features of ineffective erythropoiesis: corrects
Tph1 KO mice [3]; Tph1 KO mice, 21 days, bone marrow, FIG. 7C
  iron overload (ferritin level): decrease iron overload
Tph1 KO mice [3]; Tph1 KO mice, IP for 5 and 21 days
  condition of the mice compared with controls: improved condition of the mice
Hbb^Th1/th1 mice [4]; Hbb^Th1/Th1 mice, vs PBS
  cell survival: increased
  erythroid expansion: restored
  maturation arrest: stopped
Hbb^Th1/th1 mice [4]; Hbb^Th1/th1 mice, Ip for 13 and 21 days, vs PBS
  condition of the mice compared with control: improved condition of the mice
Hbb^Th1/th1 mice [4]; Hbb^Th1/th1 mice, conclusion from flow cytometry
  pathological features of β-thalassemia: corrects pathological features of β-thalassemia
Hbb^Th1/th1 mice [4]; Hbb^Th1/th1 mice, day 13, vs control mice, FIG. 5D
  urinary ferritin levels: significant increase
Hbb^Th1/th1 mice [4]; [8]
  percentage Ter-119+CD71+FSC cells (III-IVa) in bone marrow: decrease
  percentage and absolute number of Ter-119+CD71−FSC cells (IVb-V) in bone marrow: increase
Hbb^Th1/th1 mice [4]; Hbb^th1/th1 mice, 13 days of injection, FIG. 5A
  bone marrow expansion: correction of bone marrow expansion
Hbb^Th1/th1 mice [4]; Hbb^th1/th1 mice, 13 days of injection, FIG. 5B
  iron overload (total body iron content): decrease in iron overload
Hbb^Th1/th1 mice [4]; Hbb^th1/th1 mice, 21 days of injection
  ratio immature/mature erythroblasts (Ratio Poly/Acido): restores
Hbb^Th1/th1 mice [4]; [9]
  iron overload (total body iron content): decrease iron overload
  number of erythroid progenitors: Decrease
  number of mature erythroid cells: Increase
[5]; FIG. 9B
  increased p62 expression: ~60%
[5]; FIGS. 9A-9B
  decreased FTH expression: ~40%
[6]
  differentiation of erythroid progenitors: increases differentiation of erythroid progenitors
  immature/mature ratio: decrease
Hbb^Th1/th1 mice [1]
  RBC count: improved
  hemoglobin: improved
  hematocrit contents: improved
  iron content in bone marrow: relocate into cells of the bone marrow
  iron content in spleen: decreased the iron overload in spleen
Hamp KO mice; day 5, FIG. 3B
  iron level in the liver: reduced

## C#CCN(CC#C)CCc1c[nH]c2ccc(O)cc12 [Derivative A4, 3-(2-(di(prop-2-yn-1-yl)amino)ethyl)-1H-indol-5-ol]
Tph1 KO mice [2]
  anemic phenotype: ameliorate the anemic phenotype
  RBC count: improved
  hemoglobin: improved
  hematocrit contents: improved
  heme content in red blood cells: improved
  mean cellular volume (MCV): decrease
  iron content in spleen: mobilized out of the spleen
  iron content in bone marrow: relocate into cells of the bone marrow

## NCCc1c[nH]c2ccc(O)cc12 [serotonin, 5-hydroxytryptamine]
Tph1 KO mice [2]
  anemic phenotype: ameliorate the anemic phenotype
  RBC count: improved
  hemoglobin: improved
  hematocrit contents: improved
  heme content in red blood cells: improved
  mean cellular volume (MCV): decrease
  iron content in spleen: mobilized out of the spleen
  iron content in bone marrow: relocate into cells of the bone marrow
Hamp KO mice; day 5, FIG. 3A
  iron level in the blood: reduced
Hamp KO mice; day 5, FIG. 3C
  transferrin saturation: reduced
